Converted amounts (≈) assume the structure as drawn. “And” between values parts separate entries of the source, which are not always exact repeats. Equal values may be shown once.
What was measured:
CHIKV [1] = details: Vero A cells, cited from earlier work
CHIKV [2] = details: cited from earlier work
CHIKV E2 protein = experiment: Flow cytometry of E2 protein expression in infected BHK-21 cells; format: cell-based, Chikungunya virus (CHIKV); details: for percentages of infected cells showing E2 expression reduced: flow cytometry, 24 h post treatment
[3] = MTT cellular cytotoxicity assay; format: cell-based; details: hamster, BHK-21 cells
BHK-21 cells = experiment: Microscopic observation of cell morphology; format: cell-based, hamster; details: 5, 10 and 20 μM, 24 h, microscope
[4] = test system: CHIKV envelope E2 glycoprotein; experiment: Western blot of CHIKV E2 protein in infected BHK-21 cells; format: cell-based, Chikungunya virus (CHIKV); details: 24 h
[5] = test system: CHIKV prototype strain S27; experiment: Plaque assay of CHIKV-infected BHK-21 cells; format: cell-based, Chikungunya virus (CHIKV); details: for plaque numbers reduced: BHK-21 cells, CHIKV S27 MOI 0.01, 24 hpi
[6] = test system: CHIKV nonstructural protein nsP2; experiment: Western blot of CHIKV nsP2 protein in infected BHK-21 cells; format: cell-based, Chikungunya virus (CHIKV); details: 24 h
CHIKV E2 RNA = experiment: RT-PCR of CHIKV E2 RNA in infected BHK-21 cells; format: cell-based, Chikungunya virus (CHIKV); details: 24 h post treatment, normalized to GAPDH
CHIKV nsP2 RNA = experiment: RT-PCR of CHIKV nsP2 RNA in infected BHK-21 cells; format: cell-based, Chikungunya virus (CHIKV); details: 24 h post treatment, normalized to GAPDH
CHIKV nsP2 protein = experiment: Flow cytometry of nsP2 protein expression in infected BHK-21 cells; format: cell-based, Chikungunya virus (CHIKV); details: for numbers of cells expressing nsP2 protein reduced: flow cytometry, 24 h post treatment
[7] = ribavirin treatment, concentration not given

For `CCN(CC)CCCC(C)Nc1ccnc2cc(Cl)ccc12` (centres unmarked) [Chloroquine], the IC50 (CHIKV [1]; read-out: IC50, inhibition of CHIKV replication) is given as 7 µM, the IC90 (CHIKV [1]; read-out: IC90, inhibition of CHIKV replication) is given as 15 µM and the “IC50, antiviral effects in vitro” value (CHIKV [2]) is given as 1.1 µg/mL (≈ 3.44 µM).
For `Cn1c(=O)c(C(=O)CCN2CCOCC2)c(O)c2ccccc21` [QVIR, 4-hydroxy-1-methyl-3-(3-morpholinopropanoyl)quinoline-2(1H)-one], the “percentages of infected cells showing E2 expression reduced” value (CHIKV E2 protein; 5 μM) was 44.60%, the “percentages of infected cells showing E2 expression reduced” value (CHIKV E2 protein; 10 μM) was 51.22% and the “percentages of infected cells showing E2 expression reduced” value (CHIKV E2 protein; 20 μM) was 67.7%. For the same compound, the CC50 at 24 h [3] was over 200 µM, the “morphological changes of BHK-21 cells” value (BHK-21 cells) was “inertness” and the “E2 protein levels suppressed” value ([4]; 5 μM) was 22.8%. The “E2 protein levels suppressed” value ([4]; 10 μM) was 45.8%, the “E2 protein levels suppressed” value ([4]; 20 μM) was 53.9% and the plaque numbers reduced ([5]; 5 μM) was 82.62%. It also gave a plaque numbers reduced ([5]; 10 μM) of 97.86%, a plaque numbers reduced ([5]; 20 μM) of 99.61% and an EC50 ([5]; Chikungunya virus, BHK-21, 24 h, read-out: EC50 (50% effective concentration) against CHIKV infection) of 2200 ± 490 nM. For the same compound, the “protein levels of nsP2 reduced” value ([6]; 10 μM) was 63.4%, the “protein levels of nsP2 reduced” value ([6]; 20 μM) was 69.9% and the “RNA levels of E2 diminished” value (CHIKV E2 RNA; 5 μM) was 39%. For the same compound, the “RNA levels of E2 diminished” value (CHIKV E2 RNA; 10 μM) was 55.6%, the “RNA levels of E2 diminished” value (CHIKV E2 RNA; 20 μM) was 74% and the “RNA levels of nsP2 decreased” value (CHIKV nsP2 RNA; 5 μM) was 52.1%. The “RNA levels of nsP2 decreased” value (CHIKV nsP2 RNA; 10 μM) was 67.5%, the “RNA levels of nsP2 decreased” value (CHIKV nsP2 RNA; 20 μM) was 84% and 84.1% and the “numbers of cells expressing nsP2 protein reduced” value (CHIKV nsP2 protein; 5 μM) was 43.25%. For the same compound, the “numbers of cells expressing nsP2 protein reduced” value (CHIKV nsP2 protein; 10 μM) was 54.04% and the “numbers of cells expressing nsP2 protein reduced” value (CHIKV nsP2 protein; 20 μM) was 71.48%.
For `NC(=O)c1ncn([C@@H]2O[C@H](CO)[C@@H](O)[C@H]2O)n1` [Ribavirin, reference compound], the “viral E2 protein level by flow cytometry” value (CHIKV E2 protein; [7]) was “decreased”, the plaque numbers reduced ([5]; 10 μM) was 99.15% and the “RNA levels of E2 diminished” value (CHIKV E2 RNA; 10 μM) was 75.8%. The “RNA levels of nsP2 decreased” value (CHIKV nsP2 RNA; 10 μM) was 82.7% and the “viral nsP2 protein level by flow cytometry” value (CHIKV nsP2 protein; [7]) was “decreased”.
For `C=C[C@H]1C[N@@]2CC[C@H]1C[C@H]2[C@H](O)c1ccnc2ccc(OC)cc12` [quinine], the “IC50, inhibits CHIKV in vitro” value (CHIKV [2]) is given as 0.1 µg/mL (≈ 0.308 µM).
